From PMC5466349 (Pharmacotherapy, 2014)

Assay: clinical
Details: human, in vivo; for half-life: T ½; for half-life / Tmax: geometric mean (90% CI), post-ginseng

Cc1cccc(C)c1OCC(=O)N[C@@H](Cc1ccccc1)[C@@H](O)C[C@H](Cc1ccccc1)NC(=O)[C@H](C(C)C)N1CCCNC1=O [Lopinavir, lopinavir]
Cl/Fss geometric mean ratio (90% CI), post-ginseng/pre-ginseng: 1.05 (0.94–1.17)
T ½ geometric mean ratio (90% CI), post-ginseng/pre-ginseng: 1.19 (0.92–1.46)
half-life: 10 h
Tmax: 2.5 h

CC(C)c1nc(CN(C)C(=O)N[C@H](C(=O)N[C@@H](Cc2ccccc2)C[C@H](O)[C@H](Cc2ccccc2)NC(=O)OCc2cncs2)C(C)C)cs1 [Ritonavir, ritonavir]
half-life: 7.71 h
Tmax: 2.7 h
